Test results reported in patent US20260217701A1, “SELECTIVE BET INHIBITORS AND USES THEREOF” (Tay Therapeutics Limited, priority 2022, published 2026).
Values joined by “and” are separate entries in the source; they are usually repeats but may differ in a detail not shown here. Identical values can stand only once.

Tested on: imiquimod-induced psoriasis
Test: Imiquimod-induced psoriasis model
Assay type: in vivo, mice
Settings: for Body Weight D1: Day 1 (before treatment start on Day 8); for Body Weight D1 / Body Weight D3 / Body Weight D5 / Body Weight D7 / Body Weight D8 / Body Weight D9 / Body Weight D10 / Body Weight D11 / Body Weight D12 / Body Weight D13 / Body Weight D14 / Body Weight D15 / MBWC D1-D8 / MBWC D8-D15 / PASI Scores: individual animals; for Body Weight D3: Day 3 (before treatment start on Day 8); for Body Weight D5: Day 5 (before treatment start on Day 8); for Body Weight D7: Day 7 (before treatment start on Day 8); for Body Weight D8: Day 8 (first day of treatment); for Body Weight D9: Day 9; for Body Weight D10: Day 10; for Body Weight D11: Day 11; for Body Weight D12: Day 12; for Body Weight D13: Day 13; for Body Weight D14: Day 14; for Body Weight D15: Day 15; for MBWC D1-D8: body weight change Day 1 to Day 8 (before treatment); for MBWC D8-D15: body weight change Day 8 to Day 15 (treatment period); for PASI Scores: IMI + Compound B 1 mg/kg
In short: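 Psoriasis-like dermatitis induced in mice by daily dorsal imiquimod cream (Days 1–14); dosing with Compound A (5% DMSO/40% PEG-400/55% saline vehicle) began Day 8. Read-outs: summed 0–4 scores for erythema, induration and peeling daily to Day 15, plus terminal spleen ratio, behaviour and serum cytokines.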

[1] = IMI + 1 mg/kg, 1 mg/kg, in g (unit assumed)
[2] = IMI + 3 mg/kg, 3 mg/kg, in g (unit assumed)
[3] = IMI + 10 mg/kg, 10 mg/kg, in g (unit assumed)

SMILES: COCCn1cc(-c2ccccc2)c(-c2cn(C)c(=O)c3[nH]c(-c4cnn(C(F)(F)F)c4)cc23)cc1=O [Compound B, 4-(1-(2-methoxyethyl)-2-oxo-5-phenyl-1,2-dihydropyridin-4-yl)-6-methyl-2-(1-(trifluoromethyl)-1H-pyrazol-4-yl)-1,6-dihydro-7H-pyrrolo[2,3-c]pyridin-7-one]
- symptoms by day 15 (representative images) (10 mg/kg (printed 10 mg/ml)): nearly entirely symptom free
- mean PASI score on day 15, dose dependence (1, 3, 10 mg/kg, 10 mg/kg most effective): dose-dependent decrease in PASI scores
- efficacy on the treatment of psoriasis (2 lowest doses of 1.0 and 3.0 mg/kg bw): moderate efficacy
- Body Weight D1 (IMI + 1 mg/kg, 1 mg/kg): 17.85 and 16.71 and 18.14 (2×) and 17.67 and 18.64 and 18.37 and 17.36
- Body Weight D3 [1]: 16.05 and 15.75 and 16.34 and 16.73 and 17.52 and 16.25 and 15.31 and 17.36
- Body Weight D5 [1]: 15.71 and 15.27 and 17.54 and 16.77 and 17.97 and 16.83 and 15.98 and 16.57
- Body Weight D7 [1]: 16.02 and 15.76 and 17.96 and 17.02 and 17.69 and 17.48 and 16.75 and 17.68
- Body Weight D8 [1]: 15.83 and 15.34 and 17.54 and 16.58 and 17.61 and 16.23 and 16.35 and 17.45
- Body Weight D9 [1]: 15.70 and 15.29 and 17.68 and 16.64 and 17.26 and 15.94 and 16.69 and 17.21
- Body Weight D10 [1]: 15.94 and 15.03 and 17.60 and 16.38 and 17.13 and 16.08 and 15.92 and 17.66
- Body Weight D11 [1]: 16.10 and 14.61 and 17.64 and 16.08 and 17.41 and 16.29 and 16.64 and 17.72
- Body Weight D12 [1]: 16.03 and 14.93 and 17.80 and 16.29 and 17.39 and 16.49 and 16.17 and 17.53
- Body Weight D13 (IMI + 1 mg/kg, 1 mg/kg): 16.53 and 14.84 and 18.05 and 16.45 (2×) and 17.04 (2×) and 16.34
- Body Weight D14 [1]: 16.38 and 14.75 and 18.20 and 16.97 and 17.80 and 16.16 and 16.37 and 17.46
- Body Weight D15 [1]: 16.34 and 14.67 and 18.01 and 16.62 and 17.29 and 16.44 and 16.12 and 17.36
- MBWC D1-D8 (IMI + 1 mg/kg, 1 mg/kg): −2.02 and −1.37 and −0.60 and −1.09 and −1.03 and −2.14 and −1.01 and −0.69
- MBWC D8-D15 (IMI + 1 mg/kg, 1 mg/kg): 0.51 and −0.67 and 0.47 and 0.04 and −0.32 and 0.21 and −0.23 and −0.09
- Body Weight D1 [2]: 16.04 and 18.93 and 17.71 and 17.81 and 16.63 and 17.34 and 17.52 and 18.08
- Body Weight D3 [2]: 13.11 and 16.65 and 15.84 and 16.79 and 15.99 and 16.64 and 14.93 and 16.90
- Body Weight D5 [2]: 14.01 and 16.29 and 15.26 and 17.65 and 16.66 and 17.47 and 16.35 and 16.80
- Body Weight D7 [2]: 14.25 and 16.26 and 15.31 and 17.34 and 16.40 and 17.79 and 16.44 and 16.80
- Body Weight D8 (IMI + 3 mg/kg, 3 mg/kg): 13.57 and 15.67 and 15.44 and 17.59 and 16.51 (2×) and 17.07 and 16.13
- Body Weight D9 [2]: 13.93 and 15.56 and 15.22 and 17.78 and 16.23 and 17.14 and 15.89 and 16.28
- Body Weight D10 (IMI + 3 mg/kg, 3 mg/kg): 14.23 and 15.76 (2×) and 17.87 and 16.28 and 17.32 and 15.99 and 16.22
- Body Weight D11 [2]: 13.97 and 16.26 and 15.22 and 17.70 and 16.63 and 16.90 and 16.81 and 17.13
- Body Weight D12 [2]: 14.44 and 16.57 and 15.46 and 17.60 and 17.05 and 16.97 and 16.65 and 17.68
- Body Weight D13 [2]: 13.94 and 16.60 and 15.54 and 17.74 and 16.71 and 17.05 and 16.35 and 17.58
- Body Weight D14 [2]: 13.70 and 16.12 and 15.70 and 17.96 and 17.04 and 17.47 and 16.08 and 17.19
- Body Weight D15 (IMI + 3 mg/kg, 3 mg/kg): 13.78 and 16.88 and 15.93 and 18.05 and 17.29 (2×) and 17.08 and 15.94
- MBWC D1-D8 (IMI + 3 mg/kg, 3 mg/kg): −2.47 and −3.26 and −2.27 and −0.22 and −0.12 and −0.27 and −1.39 and −1.57
- MBWC D8-D15 (IMI + 3 mg/kg, 3 mg/kg): 0.21 and 1.21 and 0.49 and 0.46 and 0.78 (2×) and 0.01 and −0.19
- Body Weight D1 [3]: 18.66 and 16.97 and 17.99 and 16.59 and 14.70 and 18.45 and 16.88 and 17.79
- Body Weight D3 (IMI + 10 mg/kg, 10 mg/kg): 16.89 and 15.12 (2×) and 16.64 and 15.35 and 12.66 and 15.18 and 15.47
- Body Weight D5 [3]: 16.85 and 16.05 and 17.14 and 16.55 and 13.95 and 16.19 and 15.85 and 16.46
- Body Weight D7 (IMI + 10 mg/kg, 10 mg/kg): 17.09 and 15.74 and 18.31 and 16.60 and 14.04 and 16.64 (2×) and 16.00
- Body Weight D8 [3]: 16.51 and 15.56 and 18.14 and 16.14 and 14.02 and 16.16 and 15.50 and 16.26
- Body Weight D9 [3]: 16.61 and 15.20 and 17.85 and 15.85 and 13.92 and 15.86 and 15.31 and 16.41
- Body Weight D10 [3]: 16.48 and 15.64 and 18.33 and 16.10 and 13.59 and 15.70 and 15.00 and 15.80
- Body Weight D11 [3]: 16.44 and 15.87 and 17.94 and 16.30 and 14.37 and 16.54 and 16.26 and 16.95
- Body Weight D12 [3]: 16.63 and 16.40 and 18.54 and 16.96 and 14.74 and 16.69 and 16.23 and 17.34
- Body Weight D13 [3]: 17.12 and 16.52 and 18.44 and 16.93 and 14.68 and 16.17 and 16.27 and 16.95
- Body Weight D14 [3]: 17.36 and 16.91 and 18.32 and 17.28 and 15.12 and 16.21 and 16.48 and 17.35
- Body Weight D15 [3]: 18.01 and 16.93 and 18.51 and 17.31 and 15.47 and 16.86 and 16.66 and 17.96
- MBWC D1-D8 (IMI + 10 mg/kg, 10 mg/kg): −2.15 and −1.41 and 0.15 and −0.45 and −0.68 and −2.29 and −1.38 and −1.53
- MBWC D8-D15 (IMI + 10 mg/kg, 10 mg/kg): 1.50 and 1.37 and 0.37 and 1.17 and 1.45 and 0.70 and 1.16 and 1.70
- PASI Scores (D8 (day treatment started)): 7 (2×) and 6 (3×) and 8 (3×)
- PASI Scores (D9): 8 (3×) and 9 and 5 (3×) and 6
- PASI Scores (D10): 6 (4×) and 5 (2×) and 7 (2×)
- PASI Scores (D11): 8 and 6 (4×) and 4 and 7 and 9
- PASI Scores (D12): 6 (6×) and 4 and 5
